Laboratory results published in patent US6448273B1, “Orally active iron (III) chelators” (BTG International Limited, priority 1997, dated 2002).
Where a name gives a salt, the structure may show the parent alone. Read-outs that look alike come from different tables or passages of the source.

What was measured:
[1] = Distribution coefficient DpH7.4 (Kpart), octanol/MOPS pH 7.4; format: physicochemical
Description: The requirements for orally active chelators are set out in Table 4 of Hider et al as (i) good absorption from tile gastrointestinal tract, (ii) efficient liver extraction, (iii) poor entry into peripheral cells such as thymus, muscle, heart and bone marrow and (iv) poor ability to penetrate the blood-brain barrier and maternal/placental barriers.

[2] = Iron III Mobilisation Efficacy Assay in Rat: Oral Administration; format: in vivo; conditions: for Efficacy: iron mobilisation less control
Method: Control rats were given an equivalent volume of water. The rats were placed in individual metabolic cages and their urine and faeces collected. One hour after the administration they were allowed access to food, with no restriction on water being made throughout the study period. The investigation was terminated 24 hours after the ^59Fe ferritin administration when rats were sacrificed and their livers and gastrointestinal tracts, including all contents including faeces, were removed for gamma counting.

pKa of the ligand = format: physicochemical
[3] = method marked (p), first pKa, read-out: pKa, first value (p)
[4] = method marked (p), second pKa, read-out: pKa, second value (p)
[5] = method marked (s), first pKa, read-out: pKa, first value (s)
[6] = method marked (s), second pKa, read-out: pKa, second value (s)

CCn1ccc(=O)c(O)c1CO (as salt: hydrochloride) [CP359, 1-Ethyl-2-hydroxymethyl-3-hydroxy-pyridin-4(1H)-one hydrochloride]
melting point: 168 to 169 °C

Cc1cc(=O)c(O)c(CO)n1C (as salt: hydrochloride) [CP360, 1,6-Dimethyl-2-hydroxymethyl-3-hydroxy-pyridin-4(1H)-one hydrochloride]
melting point: 140 to 143 °C

Cc1cc(=O)c(O)c(C(C)O)n1C (centres unmarked) (as salt: hydrochloride) [CP361, 1,6-Dimethyl-2-(1-hydroxyethyl)-3-hydroxy-pyridin-4(1H)-one hydrochloride]
melting point: 208 to 212 °C

COC(C)c1c(O)c(=O)cc(C)n1C (centres unmarked) (as salt: hydrochloride) [CP363, 1,6-Dimethyl-2-(1-methoxyethyl)-3-hydroxy-pyridin-4(1H)-one hydrochloride]
melting point: 205 to 207 °C

Cn1ccc(=O)c(O)c1CO (as salt: hydrochloride) [CP364, 1-Methyl-2-hydroxymethyl-3-hydroxy-pyridin-4(1H)-one hydrochloride]
melting point: 157 to 159 °C

O=C(OCCCn1ccc(=O)c(O)c1CO)c1ccccc1 (as salt: hydrochloride) [CP367, 1-[(3-Benzoyloxy)propyl]-2-hydroxymethyl-3-hydroxy-pyridin-4(1H)-one hydrochloride]
melting point: 142 to 143 °C

CCn1c(C)cc(=O)c(O)c1CO (as salt: hydrochloride) [CP369, 1-Ethyl-2-hydroxymethyl-3-hydroxy-6-methyl-pyridin-4(1H)-one hydrochloride]
melting point: 160 to 162 °C

CCn1c(C)cc(=O)c(O)c1COC (as salt: hydrochloride) [CP370, 1-Ethyl-2-methoxymethyl-3-hydroxy-6-methyl-pyridin-4(1H)-one hydrochloride]
melting point: 174 to 176 °C

CC(O)c1c(O)c(=O)ccn1CCCO (centres unmarked) (as salt: hydrochloride) [CP372, 1-(3-hydroxypropyl)-2-(1-hydroxyethyl)-3-hydroxy-pyridin-4(1H)-one hydrochloride]
melting point: 117 to 120 °C

CCOC(C)c1c(O)c(=O)cc(C)n1C (centres unmarked) (as salt: hydrochloride) [CP373, 1,6-Dimethyl-2-(1-ethoxyethyl)-3-hydroxy-pyridin-4(1H)-one hydrochloride]
melting point: 195 to 199 °C

COCc1c(O)c(=O)cc(C)n1C [CP362]
DpH 7.4 [1]: 0.42

COC(C)c1c(O)c(=O)cc(C)n1C (centres unmarked) [CP363, 1,6-Dimethyl-2-(1-methoxyethyl)-3-hydroxy-pyridin-4(1H)-one hydrochloride]
Iron Mobilisation ([2]; 150 μmol/kg): 40.7 ± 2.4% | Efficacy ([2]; 150 μmol/kg): 36.8% | Iron Mobilisation ([2]; 300 μmol/kg): 66.9 ± 8.7% | Efficacy ([2]; 300 μmol/kg): 63.0% | Iron Mobilisation ([2]; 450 μmol/kg): 73.5 ± 8.1% | Efficacy ([2]; 450 μmol/kg): 69.6% | pKa (pKa of the ligand; [3]): 3.2 | pKa (pKa of the ligand; [4]): 9.44 | pKa (pKa of the ligand; [5]): 3.22 | pKa (pKa of the ligand; [6]): 9.43 | DpH 7.4 [1]: 1.09

O=C(OCCCn1ccc(=O)c(O)c1CO)c1ccccc1 [CP367, 1-[(3-Benzoyloxy)propyl]-2-hydroxymethyl-3-hydroxy-pyridin-4(1H)-one hydrochloride]
pKa (pKa of the ligand; [3]): 2.6 | pKa (pKa of the ligand; [4]): 9.07 | pKa (pKa of the ligand; [5]): 2.7 | pKa (pKa of the ligand; [6]): 8.95 | DpH 7.4 [1]: 5.61

CCn1c(C)cc(=O)c(O)c1COC [CP370, 1-Ethyl-2-methoxymethyl-3-hydroxy-6-methyl-pyridin-4(1H)-one hydrochloride]
DpH 7.4 [1]: 1.08

CCOC(C)c1c(O)c(=O)cc(C)n1C (centres unmarked) [CP373, 1,6-Dimethyl-2-(1-ethoxyethyl)-3-hydroxy-pyridin-4(1H)-one hydrochloride]
DpH 7.4 [1]: 3.32

CCC(OC)c1c(O)c(=O)cc(C)n1C (centres unmarked) [CP375, 1,6-Dimethyl-2-(1-methoxypropyl)-3-hydroxy-pyridin-4(1H)-one hydrochloride]
Iron Mobilisation ([2]; 150 μmol/kg): 40.2 ± 8.5% | Efficacy ([2]; 150 μmol/kg): 36.3% | Iron Mobilisation ([2]; 450 μmol/kg): 72.0 ± 8.2% | Efficacy ([2]; 450 μmol/kg): 68.1% | DpH 7.4 [1]: 3.85

Cn1c(CO)cc(=O)c(O)c1CO [CP387]
DpH 7.4 [1]: 0.04
